# Values joined by “and” are separate entries in the source; they are usually repeats but may differ in a detail not shown here. Equal values may be shown once. “Also recorded” adds a separate entry of the source.
# Assays:
# P. aeruginosa (PAO1) = assay: Modified Kirby-Bauer test, zone of inhibition; type: cell-based, Pseudomonas aeruginosa; conditions: for Ratio of bacterial zone of inhibition following application of plasma jet to antimicrobial loaded gel over non-plasma activated gel: antimicrobial loaded PAA/PVA composite gel
# Excerpt: (§1) The Ar-CAP jet shown in FIG. 14 consisted of an internal steel needle electrode (outer diameter=0.9 mm, inner diameter=0.6 mm, length 51 mm) sealed inside a quartz tube (inner diameter=1.5 mm, outer diameter=3 mm). Two external copper electrodes of length 4 mm 5.6 cm from electrode, spaced 5.4 cm apart and 6.6 cm from the bottom of the tube. Ar gas was kept at 1.0 standard litres per minute (SLPM) and generated at 10 kV at 23.5 kHz. Voltage and current waveforms were monitored using oscilloscope. The gap distance was 1.5 cm and the Ar-CAP jet was stationary unless otherwise stated. 31
# (§2) Bacterial overnight was made as outlined, subcultures were made in fresh MH broth absorbance corrected to OD 0.5 (˜[…] CFU/mL). 100 μL was added to Muller-Hinton agar to and spread to create a bacterial lawn. Gel discs were placed in the centre of the plate and either treated with Ar-CAP or left untreated. Plates were incubated at 37° C. for 18 h, facing up to prevent the gel from moving. Zone of inhibition (ZOI) was measured and corrected to the diameter of the gel.
# (§3) The Kirby-Bauer (KB) test is a standard test used to assess the susceptibility of bacteria to different antimicrobials by measuring the zone of bacterial growth inhibition (ZOI) due to the out diffusion of the antimicrobial agent from a sterile disc soaked in that compound. In this case, a modified form of the KB test was performed. Plasma activate antimicrobial loaded, composite hydrogels were compared to non-activated antimicrobial loaded, composite hydrogels and non-loaded, composite hydrogels with and without plasma activation.
# S. aureus (H560) = assay: Modified Kirby-Bauer test, zone of inhibition; type: cell-based, Staphylococcus aureus; conditions: for Ratio of bacterial zone of inhibition following application of plasma jet to antimicrobial loaded gel over non-plasma activated gel: antimicrobial loaded PAA/PVA composite gel
# Excerpt: as §1, §2, §3
# E. faecalis (JH2-2) = assay: Modified Kirby-Bauer test, zone of inhibition; type: cell-based, Enterococcus faecalis; conditions: for Ratio of bacterial zone of inhibition following application of plasma jet to antimicrobial loaded gel over non-plasma activated gel: antimicrobial loaded PAA/PVA composite gel
# Excerpt: as §1, §2, §3
# [1] = Passive leaching of antimicrobial from PAA composite gel, judged qualitatively from ZOI data; conditions: without CAP; judged from ZOI and ZOI ratios
# Excerpt: The variation in bacterial susceptibility to the plasma jet applied to the unloaded gel is interesting and is thought to related to the varying susceptibility of different species to the RONS generated by the CAP. Sensitivity to different antimicrobials varied as a function of both the antimicrobial moiety and the bacterial species. In this case, P. aeruginosa is seen to be sensitive to Ag^+ passively leaching from the composite gel, while S. aureus and E. faecalis are not.
# Relative passive leaching of different antimicrobials can be qualitatively assessed by looking at FIG. 5-7. The difficulty in cross comparison of the different antimicrobial susceptibility of the bacterial species to the various antimicrobials tested. The key comparison here is to look at the ratio of ZOI of the antimicrobial loaded composite gel (1st column in graphs below) to the zone of inhibition for the same loaded gel following application of the CAP jet 2nd column).
# [2] = Ninhydrin assay, gentamicin release from PAA/PVA composite hydrogel with and without Ar-CAP jet; type: physicochemical
# Method: 0.1 g of the drug loaded PAA powder was mixed with dry PVA (5% (w/v)) to obtain a homogenous powder and then is dissolved at 95° C. for 1 h. 20 ml of the PAANaPA/PVA solution was then added to a […] diameter petri dish and spread evenly. The gels were placed into a −20° C. freezer until frozen and removed and defrosted at 25° C. this process was repeated twice more to enable cryo-crosslinking of the PVA.
# The Ar-CAP jet shown in FIG. 14 consisted of an internal steel needle electrode (outer diameter=0.9 mm, inner diameter=0.6 mm, length 51 mm) sealed inside a quartz tube (inner diameter=1.5 mm, outer diameter=3 mm). […] Voltage and current waveforms were monitored using oscilloscope. […]
# Aminoglycoside was made up in pH 7.4 assay buffer (39.1 mL 0.2 M sodium hydroxide solution was added to 50 mL 0.2 M monobasic potassium phosphate solution and made up to a final volume of 200 mL with DI H2O) to starting concentration of 1 mg/mL. […] 200 μL was aliquoted into a round bottom 96-well plate and the absorbance was read at 560 nm (Clariostar, Omega). […]
# Gentamicin is an aminoglycoside antibiotic used both systemically and topically. […] Ninhydrin was used to quantify release of gentamicin both prior to CAP treatment (passive release) and following CAP treatment. […] The Ninhydrin assay was used to quantify release of gentamicin with (triggered release) and without CAP treatment (passive release).
# [3] = two secondary amine groups; net positive charge at pH 7; cited from earlier work
# [4] = tested on: clinical strains of S. aureus; conditions: many clinical strains of S. aureus; cited from earlier work
# [5] = tested on: clinical strains of P. aeruginosa; conditions: many clinical strains of P. aeruginosa; cited from earlier work
Compound,Ratio of bacterial zone of inhibition following application of plasma jet to antimicrobial loaded gel over non-plasma activated gel (P. aeruginosa (PAO1)),Ratio of bacterial zone of inhibition following application of plasma jet to antimicrobial loaded gel over non-plasma activated gel (S. aureus (H560)),Ratio of bacterial zone of inhibition following application of plasma jet to antimicrobial loaded gel over non-plasma activated gel (E. faecalis (JH2-2); E. faecalis),passive release / leaching from the PAA composite gel (qualitative) [1],sensitivity of E. faecalis compared with P. aeruginosa and S. aureus (E. faecalis (JH2-2); loaded composite gel),gentamicin released from gel into the surrounding PBS (triggered release) ([2]; after two minutes treatment with Ar CAP jet) [mg/mL],gentamicin passively released from gel ([2]; without CAP treatment) [mg/mL],pka of secondary amine groups [3],Minimal Inhibitory Concentration (MIC) [4] [µg/mL],Minimal Inhibitory Concentration (MIC) [5] [µg/mL],sensitivity to antimicrobial passively leaching from the composite gel (P. aeruginosa (PAO1); no CAP),sensitivity to antimicrobial passively leaching from the composite gel (S. aureus (H560); no CAP),"sensitivity to antimicrobial passively leaching from the composite gel (E. faecalis (JH2-2); E. faecalis, no CAP)"
Polymyxin B,13,34,>30,relatively no passive release; also recorded: little passive leaching,,,,,,,,,
Cetrimide,2.7,1.8,1.3,much greater degree of passive out-diffusion,less sensitive,,,,,,,,
gentamicin,3.6,8.2,>10,little passive leaching,,61,1.1,8.8 and 9.9,2000 to 4000,2000 to 4000,,,
"O=[N+]([O-])[O-].[Ag+] [Silver, Silver Nitrate]",1.5,7,6,much greater degree of passive out-diffusion,,,,,,,sensitive,are not,are not
